Entries after “also recorded” stand apart in the source; their conditions may differ.
Tested on: prostaglandin D2 generation following 48/80-induced mast cell degranulation
Test: In vivo mast cell activation: compound 48/80 challenge, peritoneal lavage PGD2 by LC/MS/MS
Design: species or system mouse
Settings: normal C57Bl6/N mice, oral 0.01-1.0 mg/kg ~1 hour prior to 48/80 (i.p.), lavage 7 minutes afterwards
Experimental: In Vivo Mast Cell Activation
Mice were randomized by body weight into 8 groups (n=8): Vehicle (0.5% HPML with 0.1% Tween80)+phosphate buffered saline (PBS), vehicle+compound 48/80 (0.75 mg/mL) and compound 48/80+Example 16 at various doses ranging from 0.01 mg/kg to 1.0 mg/kg.
C57BL mice were dosed orally with vehicle, or Example 16 at 0.01, 0.03, 0.1, 0.3, & 1.0 mg/kg. One hour later, blood samples were withdrawn via tail snip for measurement of drug levels, and mice were then terminally anesthetized with 2% isoflurane and given an intraperitoneal injection of 0.2 mL PBS or compound 48/80 solution (0.75 mg/mL, Sigma), followed by gentle massage of the abdomen. […]
Samples were thawed at room temperature and vortex-mixed. […] The plate was vortex-mixed for 30 seconds at 1000 rpm and analyzed by LC/MS/MS.
The analytical system consisted of a CTC HTS PAL autoinjector (Leap, Carrboro, N.C.), an Agilent 1290 Infinity binary pump and thermostated column compartment (Agilent Technologies, Santa Clara, Calif.) and an AB Sciex QTRAP 5500 mass spectrometer (AB Sciex, Framingham, Mass.). […] The analytes were detected by multiple reaction monitoring (MRM) in negative mode using Turbolon spray with the transitions of m/z 351/271 amu for PGD2/PGE2 and m/z 360/280 amu for PGD2-d9/PGE2-d9. Data were acquired, analyzed and quantified using Analyst software version 1.6.2 (AB Sciex, Framingham, Mass.). […]

With `CC1(C)C[C@H](NC(=O)c2cnc(-c3cc(F)cc(Cl)c3)s2)C(=O)N1` (single isomer, unassigned) [Example 16] the “PGD2 generation in peritoneal lavage fluid following compound 48/80 challenge (FIG. 2)” value was “prevents 48/80-induced PGD2 generation; also recorded: Dose-Dependent Reduction in Peritoneal Lavage Fluid PGD2”.

— US20220009918A1, “Chemical Compounds” (GlaxoSmithKline Intellectual Property Development Limited, priority 2018, published 2022)
